Where a name gives a salt, the structure may show the parent alone. Where a SMILES comes first, the peptide text is derived from it. Bridges are numbered along the chain shown (N, C = ends). [ ]: non-standard residue; d: D form. The star is where a group is joined. Trp(7-Me) = Cc1cccc2c(C[C@H](N)C(=O)O)c[nH]c12; Lys(Me3) = C[N+](C)(C)CCCC[C@H](N)C(=O)O; 2Nal = N[C@@H](Cc1ccc2ccccc2c1)C(=O)O; AEF = NCCOc1ccc(C[C@H](N)C(=O)O)cc1; 3Pal = N[C@@H](Cc1cccnc1)C(=O)O; Lys(Me) = CNCCCC[C@H](N)C(=O)O; Pen = CC(C)(S)[C@H](N)C(=O)O; Thp = NC1(C(=O)O)CCOCC1; Me2NCH2CH2 = CN(C)CC*; Tfa = O=C(C(F)(F)F)*; Sar = CNCC(=O)O
molecular target: Signal transducer and activator of transcription 3 (Homo sapiens, UniProt P40763); assay: Inhibition of STAT3 phosphorylation in human PBMC cells preincubated for 30 mins followed by addition of IL-23 and measured after 10 mins
Sequence (P40763 whole entry): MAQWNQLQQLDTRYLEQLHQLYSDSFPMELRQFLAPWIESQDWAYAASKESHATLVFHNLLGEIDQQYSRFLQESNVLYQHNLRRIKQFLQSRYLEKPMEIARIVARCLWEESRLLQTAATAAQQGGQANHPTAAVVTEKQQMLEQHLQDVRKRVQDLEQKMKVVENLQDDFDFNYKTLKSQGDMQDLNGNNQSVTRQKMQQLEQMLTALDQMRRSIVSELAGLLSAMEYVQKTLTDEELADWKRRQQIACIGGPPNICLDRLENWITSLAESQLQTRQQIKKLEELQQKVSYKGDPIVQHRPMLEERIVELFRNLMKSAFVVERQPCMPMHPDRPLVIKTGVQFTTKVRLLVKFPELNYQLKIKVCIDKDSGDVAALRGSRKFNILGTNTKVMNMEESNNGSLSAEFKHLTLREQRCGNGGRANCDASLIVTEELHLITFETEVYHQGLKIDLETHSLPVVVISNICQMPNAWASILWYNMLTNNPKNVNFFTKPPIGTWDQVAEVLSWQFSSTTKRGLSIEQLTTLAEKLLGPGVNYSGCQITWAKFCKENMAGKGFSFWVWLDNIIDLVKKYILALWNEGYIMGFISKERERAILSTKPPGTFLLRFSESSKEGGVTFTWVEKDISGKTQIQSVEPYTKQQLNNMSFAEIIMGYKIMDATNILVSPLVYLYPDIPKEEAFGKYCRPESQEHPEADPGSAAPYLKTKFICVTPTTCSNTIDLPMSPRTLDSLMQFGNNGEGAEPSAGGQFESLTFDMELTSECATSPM

| Structure (SMILES) | IC50 |
| --- | --- |
| CC(=O)N[C@@H](CCCC[N+](C)(C)C)C(=O)N[C@@H]1C(=O)N[C@@H](CC(=O)N(C)C)C(=O)N[C@@H]([C@@H](C)O)C(=O)N[C@@H](Cc2c[nH]c3c(C)cccc23)C(=O)N[C@@H](CCCCN(C)C(C)=O)C(=O)N[C@H](C(=O)N[C@@H](Cc2ccc(OCCN(C)C)cc2)C(=O)N[C@@H](Cc2ccc3ccccc3c2)C(=O)NC2(C(=O)N[C@@H](CCC(=O)O)C(=O)N[C@@H](CC(N)=O)C(=O)N[C@@H](Cc3cccnc3)C(=O)N(C)CC(=O)N(C)C)CCOCC2)C(C)(C)SSC1(C)C (Ac-[Lys(Me3)][Pen]D(NMe2)T[Trp(7-Me)][Lys(Me)](Ac)[Pen]Y(Me2NCH2CH2)[2Nal][Thp]EN[3Pal][Sar]-NMe2; disulfide 2-7) | 8 pM |
| Cc1cccc2c(C[C@@H]3NC(=O)[C@H]([C@@H](C)O)NC(=O)[C@H](CC(N)=O)NC(=O)[C@@H](NC(=O)C(F)(F)F)C(C)(C)SSC(C)(C)[C@@H](C(=O)N[C@@H](Cc4ccc(OCCN)cc4)C(=O)N[C@@H](Cc4ccc5ccccc5c4)C(=O)NC4(C(=O)N[C@@H](CCC(=O)N(C)C)C(=O)N[C@@H](CC(N)=O)C(=O)N[C@@H](Cc5cccnc5)C(=O)N(C)CC(N)=O)CCOCC4)NC(=O)[C@H](CCC(=O)N(C)C)NC3=O)c[nH]c12 (Tfa-[Pen]NT[Trp(7-Me)]E(NMe2)[Pen][AEF][2Nal][Thp]E(NMe2)N[3Pal][Sar]-NH2; disulfide 1-6) | 8 pM |

The remaining molecules from weak to strong by IC50, led by results:

| IC50 | Structure (SMILES) |
| --- | --- |
| 8 pM | CC(=O)NCCCC[C@@H]1NC(=O)[C@H](Cc2c[nH]c3c(C)cccc23)NC(=O)[C@H]([C@@H](C)O)NC(=O)[C@H](CC(N)=O)NC(=O)[C@@H](NC(C)=O)C(C)(C)SSC(C)(C)[C@@H](C(=O)N[C@@H](Cc2ccc(OCCCCC[N+](C)(C)C)cc2)C(=O)N[C@@H](Cc2ccc3ccccc3c2)C(=O)NC2(C(=O)N[C@@H](CCCCNC(C)=O)C(=O)N[C@@H](CC(N)=O)C(=O)N[C@@H](Cc3cccnc3)C(=O)N(C)CC(N)=O)CCOCC2)NC1=O |
| 6 pM | CC(=O)NCCCC[C@@H]1NC(=O)[C@H](Cc2c[nH]c3c(C)cccc23)NC(=O)[C@H]([C@@H](C)O)NC(=O)[C@H](CC(N)=O)NC(=O)[C@@H](NC(=O)CCOCCOCC[N+](C)(C)C)C(C)(C)SSC(C)(C)[C@@H](C(=O)N[C@@H](Cc2ccc(OCCN)cc2)C(=O)N[C@@H](Cc2ccc3ccccc3c2)C(=O)NC2(C(=O)N[C@@H](CCC(=O)O)C(=O)N[C@@H](CC(N)=O)C(=O)N[C@@H](Cc3cccnc3)C(=O)N(C)CC(N)=O)CCOCC2)NC1=O |
| 3 pM | CC(=O)N(C)CCCC[C@@H]1NC(=O)[C@H](Cc2c[nH]c3c(C)cccc23)NC(=O)[C@H]([C@@H](C)O)NC(=O)[C@H](CC(=O)N(C)C)NC(=O)[C@@H](NC(=O)C(F)(F)F)C(C)(C)SSC(C)(C)[C@@H](C(=O)N[C@@H](Cc2ccc(OCCN(C)C)cc2)C(=O)N[C@@H](Cc2ccc3ccccc3c2)C(=O)NC2(C(=O)N[C@@H](CCC(=O)O)C(=O)N[C@@H](CC(N)=O)C(=O)N[C@@H](Cc3cccnc3)C(=O)N(C)CC(=O)N(C)C)CCOCC2)NC1=O (Tfa-[Pen]D(NMe2)T[Trp(7-Me)][Lys(Me)](Ac)[Pen]Y(Me2NCH2CH2)[2Nal][Thp]EN[3Pal][Sar]-NMe2; disulfide 1-6) |
